Experimental data taken from the NIST ThermoML archive (doi:10.1016/j.tca.2016.12.010).
± gives the expanded uncertainty stated by the source.

Experiment: refractive index (Na D-line) (dimensionless); xn = mol fraction of the nth substance listed
Conditions: 94.9 kPa, Liquid, (Schmidt +Haensch) refractometer (Model DSR lambda)

CCCCCCCCO [octan-1-ol] + Cc1ccccc1
refractive index
Conditions	x1 = 0.1041	x1 = 0.1973	x1 = 0.3018	x1 = 0.4033	x1 = 0.5035	x1 = 0.6007	x1 = 0.6996	x1 = 0.793	x1 = 0.9044	x1 = 1
293.15 K	1.48465 ± 0.0024	1.4763 ± 0.0024	1.4681 ± 0.0024	1.46072 ± 0.0024	1.45442 ± 0.0024	1.44894 ± 0.0024	1.44373 ± 0.0024	1.43912 ± 0.0024	1.4338 ± 0.0024	1.4295 ± 0.0024
298.15 K	1.48192 ± 0.0024	1.47333 ± 0.0024	1.46514 ± 0.0024	1.45795 ± 0.0024	1.45173 ± 0.0024	1.44634 ± 0.0024	1.44116 ± 0.0024	1.43666 ± 0.0024	1.43178 ± 0.0024	1.42748 ± 0.0024
303.15 K	1.47921 ± 0.0024	1.47041 ± 0.0024	1.46231 ± 0.0024	1.45514 ± 0.0024	1.44904 ± 0.0024	1.44377 ± 0.0024	1.43893 ± 0.0024	1.43469 ± 0.0024	1.4298 ± 0.0024	1.42561 ± 0.0024
308.15 K	1.47628 ± 0.0024	1.46762 ± 0.0024	1.45938 ± 0.0024	1.45234 ± 0.0024	1.44634 ± 0.0024	1.44118 ± 0.0024	1.43647 ± 0.0024	1.43239 ± 0.0024	1.42757 ± 0.0024	1.42369 ± 0.0024
313.15 K	1.47333 ± 0.0024	1.46463 ± 0.0024	1.45656 ± 0.0024	1.44956 ± 0.0024	1.44362 ± 0.0024	1.43864 ± 0.0024	1.43413 ± 0.0024	1.43002 ± 0.0024	1.42559 ± 0.0024	1.42169 ± 0.0024
318.15 K	1.47014 ± 0.0024	1.46186 ± 0.0024	1.45372 ± 0.0024	1.44685 ± 0.0024	1.44101 ± 0.0024	1.43601 ± 0.0024	1.43149 ± 0.0024	1.4277 ± 0.0024	1.42342 ± 0.0024	1.41973 ± 0.0024
323.15 K	1.46755 ± 0.0024	1.45882 ± 0.0024	1.45094 ± 0.0024	1.44415 ± 0.0024	1.43836 ± 0.0024	1.43341 ± 0.0024	1.42902 ± 0.0024	1.42541 ± 0.0024	1.42136 ± 0.0024	1.41783 ± 0.0024
333.15 K	1.46181 ± 0.0024	1.45314 ± 0.0024	1.44526 ± 0.0024	1.43873 ± 0.0024	1.43312 ± 0.0024	1.42831 ± 0.0024	1.42423 ± 0.0024	1.42094 ± 0.0024	1.41714 ± 0.0024	1.41407 ± 0.0024
